Experimental data from ChEMBL document CHEMBL1201862, “PubChem BioAssay data set” (2004).
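Five concentrations, 48 hours, 96-well plates. GI50 is the concentration that inhibits growth by half.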 Activity calls are given as the source filed them. No stated cut-off is given here; in the data, active = GI50 up to about 1.1 µM and inactive = higher.

Key:
Test in all cases: NCI tumour cell line growth inhibition, 48 h
A549 = test system: A549
CCRF-CEM = test system: CCRF-CEM
EKVX = test system: EKVX
HCC 2998 = test system: HCC 2998
HCT-116 = test system: HCT-116
HCT-15 = test system: HCT-15
HL-60 = test system: HL-60
MCF7 = test system: MCF7
MDA-MB-435 = test system: MDA-MB-435
Malme-3M = test system: Malme-3M
NCI/ADR-RES = test system: NCI/ADR-RES
OVCAR-8 = test system: OVCAR-8
RPMI-8226 = test system: RPMI-8226
SF-539 = test system: SF-539
SK-MEL-28 = test system: SK-MEL-28
SK-MEL-2 = test system: SK-MEL-2
SK-OV-3 = test system: SK-OV-3
SW-620 = test system: SW-620
BT-549 = test system: BT-549

SMILES	GI50 (A549)	GI50 (CCRF-CEM)	GI50 (EKVX)	GI50 (HCC 2998)	GI50 (HCT-116)	GI50 (HCT-15)	GI50 (HL-60)	GI50 (MCF7)	GI50 (MDA-MB-435)	GI50 (Malme-3M)	GI50 (NCI/ADR-RES)	GI50 (OVCAR-8)	GI50 (RPMI-8226)	GI50 (SF-539)	GI50 (SK-MEL-28)	GI50 (SK-MEL-2)	GI50 (SK-OV-3)	GI50 (SW-620)	GI50 (BT-549)
[O-][n+]1onc2c1-c1nonc1CC2	72.1 µM (inactive)	27.7 µM (inactive)	25.9 µM (inactive)	77.1 µM (inactive)	20.7 µM (inactive)	62.8 µM	34.5 µM (inactive)	28.5 µM (inactive)	39.1 µM (inactive)	11.9 µM (inactive)	42.7 µM (inactive)	46 µM (inactive)	> 100 µM (inactive)	25.3 µM (inactive)	55.2 µM (inactive)	24.1 µM (inactive)	47.9 µM (inactive)	45.1 µM (inactive)	–
CN(C)CCNc1ccccn1	> 100 µM (inactive)	–	> 100 µM (inactive)	> 100 µM (inactive)	> 100 µM (inactive)	> 100 µM	> 100 µM (inactive)	–	> 100 µM (inactive)	> 100 µM (inactive)	> 100 µM (inactive)	> 100 µM (inactive)	–	–	> 100 µM (inactive)	> 100 µM (inactive)	–	> 100 µM (inactive)	> 100 µM (inactive)
Cc1c2c(n(C)c1C)C(=O)C1C(C2=O)C2(C)c3ccccc3C1(C)c1ccccc12 (stereo unspecified)	–	> 100 µM (inactive)	> 100 µM (inactive)	–	> 100 µM (inactive)	> 100 µM	> 100 µM (inactive)	> 100 µM (inactive)	> 100 µM (inactive)	> 100 µM (inactive)	> 100 µM (inactive)	> 100 µM (inactive)	> 100 µM (inactive)	> 100 µM (inactive)	> 100 µM (inactive)	> 100 µM (inactive)	> 100 µM (inactive)	> 100 µM (inactive)	> 100 µM (inactive)
CCOC(=O)Cn1sc2ncc([N+](=O)[O-])cc2c1=O	19.3 µM (inactive)	2.07 µM (inactive)	27.9 µM (inactive)	16.4 µM (inactive)	17.3 µM (inactive)	16.4 µM	8.15 µM (inactive)	18.1 µM (inactive)	16.2 µM (inactive)	17.9 µM (inactive)	13.9 µM (inactive)	16.3 µM (inactive)	8 µM (inactive)	19.5 µM (inactive)	15.1 µM (inactive)	22.2 µM (inactive)	18.3 µM (inactive)	16.1 µM (inactive)	–
COc1cc(OC)cc(Oc2nc3cc(F)c(F)cc3nc2-c2ccccc2)c1	> 100 µM (inactive)	> 100 µM (inactive)	> 100 µM (inactive)	–	> 100 µM (inactive)	> 100 µM	> 100 µM (inactive)	> 100 µM (inactive)	> 100 µM (inactive)	> 100 µM (inactive)	> 100 µM (inactive)	> 100 µM (inactive)	–	> 100 µM (inactive)	> 100 µM (inactive)	> 100 µM (inactive)	> 100 µM (inactive)	> 100 µM (inactive)	> 100 µM (inactive)
CC(=O)c1ccc2c(c1)oc(=O)n2CCN1CCCCC1	–	26.3 µM (inactive)	> 100 µM (inactive)	–	> 100 µM (inactive)	> 100 µM	> 100 µM (inactive)	> 100 µM (inactive)	> 100 µM (inactive)	2.79 µM (inactive)	> 100 µM (inactive)	> 100 µM (inactive)	> 100 µM (inactive)	> 100 µM (inactive)	> 100 µM (inactive)	> 100 µM (inactive)	> 100 µM (inactive)	> 100 µM (inactive)	> 100 µM (inactive)
CC(C)=NNC1=NC(C)(C)P(=O)(NNc2ncccn2)S1 (stereo unspecified)	> 100 µM (inactive)	–	> 100 µM (inactive)	> 100 µM (inactive)	> 100 µM (inactive)	> 100 µM	–	> 100 µM (inactive)	> 100 µM (inactive)	–	–	> 100 µM (inactive)	–	> 100 µM (inactive)	> 100 µM (inactive)	> 100 µM (inactive)	> 100 µM (inactive)	> 100 µM (inactive)	> 100 µM (inactive)
O=S1(=O)OCCOS(=O)(=O)C1Cc1cccc2ccccc12	35.2 µM (inactive)	14.2 µM (inactive)	30.3 µM (inactive)	20.1 µM (inactive)	20.3 µM (inactive)	26.5 µM	11.6 µM (inactive)	14.4 µM (inactive)	16.2 µM (inactive)	16.1 µM (inactive)	20.3 µM (inactive)	17.7 µM (inactive)	39.4 µM (inactive)	22.3 µM (inactive)	2.69 µM (inactive)	51.3 µM (inactive)	27.5 µM (inactive)	30.6 µM (inactive)	–
CCOC(=O)[C@]12C(=C(c3ccccc3)O[C@H]3C=CCC[C@H]31)C(=O)C(=O)N2c1ccccc1	> 100 µM (inactive)	–	–	> 100 µM (inactive)	> 100 µM (inactive)	> 100 µM	–	> 100 µM (inactive)	–	65.5 µM (inactive)	17.1 µM (inactive)	65.2 µM (inactive)	19.8 µM (inactive)	> 100 µM (inactive)	–	> 100 µM (inactive)	> 100 µM (inactive)	–	–
Cc1nn(-c2ccccc2)c2nc3c(c(C)nn3-c3ccccc3)c(-c3ccc(C(F)(F)F)cc3)c12	> 100 µM (inactive)	> 100 µM (inactive)	> 100 µM (inactive)	> 100 µM (inactive)	> 100 µM (inactive)	> 100 µM	> 100 µM (inactive)	> 100 µM (inactive)	> 100 µM (inactive)	–	> 100 µM (inactive)	> 100 µM (inactive)	> 100 µM (inactive)	72.3 µM (inactive)	> 100 µM (inactive)	–	> 100 µM (inactive)	> 100 µM (inactive)	–
CN(C)c1ccc(/C=C2\C[C@H]3[C@@H]4CC=C5C[C@@H](O)CC[C@]5(C)[C@H]4CC[C@]3(C)[C@H]2O)cc1	13.6 µM (inactive)	–	4.81 µM (inactive)	–	6.59 µM (inactive)	15.7 µM	31 µM (inactive)	17.4 µM (inactive)	–	19.9 µM (inactive)	18.4 µM (inactive)	3.84 µM (inactive)	29.9 µM (inactive)	10.2 µM (inactive)	20.4 µM (inactive)	20.9 µM (inactive)	31.2 µM (inactive)	24.8 µM (inactive)	21 µM (inactive)
O=C1OCOC2(CCCC2)C1c1ccccc1 (stereo unspecified)	> 100 µM (inactive)	> 100 µM (inactive)	> 100 µM (inactive)	> 100 µM (inactive)	> 100 µM (inactive)	> 100 µM	> 100 µM (inactive)	–	> 100 µM (inactive)	> 100 µM (inactive)	> 100 µM (inactive)	> 100 µM (inactive)	> 100 µM (inactive)	> 100 µM (inactive)	> 100 µM (inactive)	> 100 µM (inactive)	> 100 µM (inactive)	> 100 µM (inactive)	–
CN1CN(c2ccccc2)C2(CCN(CC(C)(c3ccc(F)cc3)C3OCCCO3)CC2)C1=O (stereo unspecified)	25.9 µM (inactive)	13 µM (inactive)	16.7 µM (inactive)	–	14.9 µM (inactive)	15.3 µM	14.7 µM (inactive)	13 µM (inactive)	10.9 µM (inactive)	15.6 µM (inactive)	12.9 µM (inactive)	19.4 µM (inactive)	10.2 µM (inactive)	13.2 µM (inactive)	16.8 µM (inactive)	–	26.4 µM (inactive)	20.6 µM (inactive)	5.31 µM (inactive)
CC(C)CC1C(=O)NCCC(NC(=O)C(Cc2ccc(OC(C)(C)C)cc2)NC(=O)OC(C)(C)C)C(=O)NC(Cc2ccccc2)C(=O)NC(Cc2ccccc2)NC1=O (stereo unspecified)	–	4.3 µM (inactive)	4.89 µM (inactive)	17.3 µM (inactive)	4.05 µM (inactive)	> 100 µM	8.36 µM (inactive)	17 µM (inactive)	2.82 µM (inactive)	13.6 µM (inactive)	> 100 µM (inactive)	5.68 µM (inactive)	9.75 µM (inactive)	23.2 µM (inactive)	18.3 µM (inactive)	–	22 µM (inactive)	2.54 µM (inactive)	–
COC(=O)c1cnn2c1n[n+]([O-])c1ccccc12	> 100 µM (inactive)	> 100 µM (inactive)	> 100 µM (inactive)	–	> 100 µM (inactive)	–	68.5 µM (inactive)	> 100 µM (inactive)	> 100 µM (inactive)	> 100 µM (inactive)	> 100 µM (inactive)	> 100 µM (inactive)	> 100 µM (inactive)	–	> 100 µM (inactive)	> 100 µM (inactive)	> 100 µM (inactive)	> 100 µM (inactive)	> 100 µM (inactive)
N#Cc1nc(-c2ccccn2)oc1N	–	> 100 µM (inactive)	> 100 µM (inactive)	> 100 µM (inactive)	> 100 µM (inactive)	> 100 µM	> 100 µM (inactive)	> 100 µM (inactive)	> 100 µM (inactive)	> 100 µM (inactive)	–	–	> 100 µM (inactive)	–	> 100 µM (inactive)	> 100 µM (inactive)	> 100 µM (inactive)	> 100 µM (inactive)	> 100 µM (inactive)
CC(C)(C)C(O)CC(O)(C(F)(F)F)C(F)(F)F (stereo unspecified)	> 100 µM (inactive)	> 100 µM (inactive)	> 100 µM (inactive)	> 100 µM (inactive)	> 100 µM (inactive)	> 100 µM	> 100 µM (inactive)	> 100 µM (inactive)	> 100 µM (inactive)	> 100 µM (inactive)	> 100 µM (inactive)	> 100 µM (inactive)	> 100 µM (inactive)	> 100 µM (inactive)	> 100 µM (inactive)	> 100 µM (inactive)	> 100 µM (inactive)	> 100 µM (inactive)	–
